Experimental data as given in BindingDB's records for doi:10.1021/jm049073+ (University of Innsbruck, 2005).

Molecular target: Sigma non-opioid intracellular receptor 1 (Cavia porcellus)
Experiment: Affinity for sigma receptor type 1 of guinea pig using [3H]ifenprodil or (+)-[3H]pentazocine radioligand

Row | Compound | Ki [nM]
1 | NC(=Nc1nc(-c2cc3ccccc3[nH]2)cs1)NCc1ccccc1 [N-Benzyl-N'-[4-(1H-indol-2-yl)-thiazol-2-yl]-guanidine] | 26700
2 | C[C@H]1CCC2[C@@H](C)[C@H]3[C@H](C[C@H]4[C@@H]5CC=C6C[C@@H](O)CC[C@]6(C)[C@H]5CC[C@]34C)N2C1 (stereo partly drawn) [4a,6a,7,10-tetramethyl-(2S,4aR,4bS,6aS,6bR,7S,10S,12aS,13aS,13bR)-2,3,4,4a,4b,5,6,6a,6b,7,7a,8,9,10,11,12a,13,13a,13b,14-icosahydro-1H-naphtho[2',1':4,5]indeno[1,2-b]indolizin-2-ol] | 74
3 | CCCCCCCCCCCCC(C#N)(CCCN(C)CCc1ccccc1)c1ccccc1 (stereo not drawn) [2-[3-(Methyl-phenethyl-amino)-propyl]-2-phenyl-tetradecanenitrile] | 1
4 | CCCCCCCOc1ccccc1NC(=O)OC(C)CN(CC)CC (stereo not drawn) [(2-Heptyloxy-phenyl)-carbamic acid 2-diethylamino-1-methyl-ethyl ester] | 230
5 | CC1=C2C[C@H]3[C@@H](CC=C4C[C@@H](O)CC[C@@]43C)[C@@H]2CC[C@]12O[C@]1(C)C[C@H](C)CN[C@H]1[C@H]2C [2',3,6,7a,15'-Pentamethyl-(1'S,2'R,2'R,3R,3aS,5'S,6S,7aR,10'S,11'S)-spiro[perhydrofuro[3,2-b]pyridine-2,14'-tetracyclo[8.7.0.02,7.011,16]heptadeca-7',15'-diene]-5'-ol] | > 100000
6 | O=C(O)c1ccc(CCN2CCN(C/C=C/c3ccc(Cl)cc3)CC2)cc1 | 680
7 | CC[C@H]1CC2C[C@H]3C4Nc5ccc(OC)cc5C4CCN(C2)C13 (stereo partly drawn) [17-ethyl-3,13-diazapentacyclo[13.3.1.02,10.04,9.013,18]nonadeca-4,6,8-trien-7-yl methyl ether] | 8550
8 | CN(c1nc2ccccc2s1)C1CCN(CCCCOc2ccccc2)C1 (stereo not drawn) [Benzothiazol-2-yl-methyl-[1-(4-phenoxy-butyl)-pyrrolidin-3-yl]-amine] | 1.3
